Earlier results, collected in patent publication US20110144047A1, “COMBINED METHOD FOR PREDICTING THE RESPONSE TO AN ANTI-CANCER THERAPY” (DAKO DENMARK A/S, priority 2008, published 2011).

System: murine fibro sarcoma cells derived from TIMP-1 gene-deficient mice
Settings: in vitro; previously published by the inventors

Structure (SMILES): COc1cc([C@@H]2c3cc4c(cc3[C@@H](O[C@@H]3O[C@@H]5CO[C@@H](C)O[C@H]5[C@H](O)[C@H]3O)[C@H]3COC(=O)[C@H]23)OCO4)cc(OC)c1O [etoposide]
- sensitivity of TIMP-1 gene-deficient cells compared with wild-type cells expressing TIMP-1: significantly more sensitive
